Test system: RA-metabolism in MCF-7 human breast cancer cells
Test: Inhibition of retinoic acid (RA) metabolism
Format: cell-based
Settings: MCF7, concentration needed to reduce the amount of polar 3H-RA metabolites to 50% of the control, MCF-7 cells
Text: The property to delay the metabolism of retinoic acid can be evidenced in various in vitro and in vivo experiments. A particular in vitro procedure is described in example C.1 and tests the inhibitory activity of the compounds of formula (I) on the metabolism of retinoic acid in human breast cancer cells. The compounds of the present invention were also effective in suppressing induced vaginal keratinization effects in ovariectomized rats as is described in example C.2.
MCF-7 human breast cancer cells were grown as stock cultures according to art-known protocols. One day before the experiment, RA is added to the stock cultures to stimulate RA-metabolism. At the start of the experiment, cell suspensions were incubated in a tissue culture medium containing ^3H-RA as the substrate. Different concentrations of the test compound (dissolved in 1% DMSO) were added to the incubation mixtures, and at the end of the incubation, the unmetabolized RA is separated from its polar metabolites. The fraction containing the polar ^3H-labeled metabolites was collected and counted in a scintillation counter. For each experiment, a control and a blank incubation were run in parallel.

Row | IC50 [nM] | SMILES
1 | < 10 | CCC(CC)C(c1ccc(Nc2nc3ccccc3s2)cc1)n1cncn1 (racemic) [Compound 25, (±)-N-[4-[2-ethyl-1-(1H-1,2,4-triazol-1-yl)butyl]phenyl]-2-benzothiazol-amine]
2 | < 10 | Cc1csc(Nc2ccc(C(C(C)C)n3ccnc3)cc2)n1 (racemic) [Compound 50, (±)-N-[4-[1-(1H-imidazol-1-yl)-2-methylpropyl]phenyl]-4-methyl-2-thiazolamine]
3 | < 10 | CC(C)C(c1ccc(Nc2nccs2)cc1)n1ccnc1 (racemic) [Compound 51, (±)-N-[4-[1-(1H-imidazol-1-yl)-2-methylpropyl]phenyl]-2-thiazolamine]
4 | < 10 | c1ccc2sc(Nc3ccc(Cn4ccnc4)cc3)nc2c1 [Compound 24, N-[4-(1H-imidazol-1-ylmethyl)-phenyl]-2-benzothiazolamine]
5 | < 10 | CCC(CC)C(c1ccc(Nc2nc3ccccc3o2)cc1)n1cncn1 (centres unmarked) [Compound 56, N-[4-[2-ethyl-1-(1H-1,2,4-triazol-1-yl)butyl]phenyl]-2-benzoxazolamine]

Reference: US7378433B2, “N-[4-(heteroarylmethyl)phenyl]-heteroarylamines” (Janssen Pharmaceutica, N.V., priority 1996, dated 2008)
